Experimental findings from patent US9663530B2, “5-oxa-2-azabicyclo[2.2.2]OCTAN-4-yl and 5-oxa-2-azabicyclo[2.2.1]heptan-4-yl derivatives” (Hoffmann-La Roche Inc., priority 2014, dated 2017) are described below.

The target in one experiment is rat TAAR1 (Rattus norvegicus (Rat), UniProt Q923Y9). Kind of experiment: Radioligand binding assay on rat TAAR1. As to conditions: for Ki: rat TAAR1 (second value of the cell), membranes of HEK-293 cells stably expressing rat TAAR1, read-out: Ki (μM) mouse/rat. As for the experimental part:
(§1) Construction of TAAR Expression Plasmids and Stably Transfected Cell Lines
(§2) For the construction of expression plasmids the coding sequences of human, rat and mouse TAAR 1 were amplified from genomic DNA essentially as described by Lindemann et al.. The Expand High Fidelity PCR System (Roche Diagnostics) was used with 1.5 mM Mg^2+ and purified PCR products were cloned into pCR2.1-TOPO cloning vector (Invitrogen) following the instructions of the manufacturer. PCR products were subcloned into the pIRESneo2 vector (BD Clontech, Palo Alto, Calif.), and expression vectors were sequence verified before introduction in cell lines.
(§3) HEK293 cells (ATCC # CRL-1573) were cultured essentially as described by Lindemann et al. (2005). For the generation of stably transfected cell lines HEK293 cells were transfected with the pIRESneo2 expression plasmids containing the TAAR coding sequences (described above) with Lipofectamine 2000 (Invitrogen) according to the instructions of the manufacturer, and 24 hrs post transfection the culture medium was supplemented with 1 mg/ml G418 (Sigma, Buchs, Switzerland). After a culture period of about 10 d clones were isolated, expanded and tested for responsiveness to trace amines (all compounds purchased from Sigma) with the cAMP Biotrak Enzyme immunoassay (EIA) System (Amersham) following the non-acetylation EIA procedure provided by the manufacturer.
Radioligand Binding Assay on Rat TAAR1
(§4) Membrane Preparation and Radioligand Binding.
HEK-293 cells stably expressing rat TAAR1 were maintained at 37° C. and 5% CO2 in DMEM high glucose medium, containing fetal calf serum (10%, heat inactivated for 30 min at 56° C.), penicillin/streptomycin (1%), and 375 μg/ml geneticin (Gibco). Cells were released from culture flasks using trypsin/EDTA, harvested, washed twice with ice-cold PBS (without Ca^2+ and Mg^2+), pelleted at 1,000 rpm for 5 min at 4° C., frozen and stored at −80° C. Frozen pellets were suspended in 20 ml HEPES-NaOH (20 mM, pH 7.4) containing 10 mM EDTA and homogenized with a Polytron (PT 6000, Kinematica) at 14,000 rpm for 20 s. The homogenate was centrifuged at 48,000×g for 30 min at 4° C. Subsequently, the supernatant was removed and discarded, and the pellet resuspended in 20 ml HEPES-NaOH (20 mM, pH 7.4) containing 0.1 mM EDTA using the Polytron (20 s at 14,000 rpm). This procedure was repeated and the final pellet resuspended in HEPES-NaOH containing 0.1 mM EDTA and homogenized using the Polytron. Typically, aliquots of 2 ml membrane portions were stored at −80° C. With each new membrane batch the dissociation constant (Kd) was determined via a saturation curve. […] Nonspecific binding was defined as the amount of ^3[H]-(S)-4-[(ethyl-phenyl-amino)-methyl]-4,5-dihydro-oxazol-2-ylamine bound in the presence of 10 μM unlabeled ligand. All compounds were tested at a broad range of concentrations ([…]) in duplicates. The test compounds (20 […]μl/well) were transferred into a 96 deep well plate (TreffLab), and 180 μl of HEPES-NaOH (20 mM, pH 7.4) containing MgCl2 (10 mM) and CaCl2 (2 mM) (binding buffer), 300 μl of the radioligand ^3[H]-(S)-4-[(ethyl-phenyl-amino)-methyl]-4,5-dihydro-oxazol-2-ylamine at a concentration of 3.3×Kd in nM and 500 μl of the membranes (resuspended at 50 μg protein per ml) added. The 96 deep well plates were incubated for 1 hr at 4° C. Incubations were terminated by rapid filtration through Unifilter-96 plates (Packard Instrument Company) and glass filters GF/C (Perkin Elmer) presoaked for 1 hr in polyethylenimine (0.3%) and washed 3 times with 1 ml of cold binding buffer. After addition of 45 μl of Microscint 40 (PerkinElmer) the Unifilter-96 plate was sealed and after 1 hr the ratioactivity counted using a TopCount Microplate Scintillation Counter (Packard Instrument Company).

The next experiment concerns the target mouse TAAR1 (Mus musculus (Mouse), UniProt Q923Y8). Put plainly: Radioligand binding assay on mouse TAAR1. As to conditions: for Ki: mouse TAAR1 (first value of the cell), membranes of HEK-293 cells stably expressing mouse TAAR1, read-out: Ki (μM) mouse/rat. As for the experimental part: as §1, §2, §3
Radioligand Binding Assay on Mouse TAAR1
as §4
HEK-293 cells stably expressing mouse TAAR1 were maintained at 37° C. and 5% CO2 in DMEM high glucose medium, containing fetal calf serum (10%, heat inactivated for 30 min at 56° C.), penicillin/streptomycin (1%), and 375 μg/ml geneticin (Gibco). Cells were released from culture flasks using trypsin/EDTA, harvested, washed twice with ice-cold PBS (without Ca^2+and Mg^2+), pelleted at 1,000 rpm for 5 min at 4° C., frozen and stored at −80° C. Frozen pellets were suspended in 20 ml HEPES-NaOH (20 mM, pH 7.4) containing 10 mM EDTA and homogenized with a Polytron (PT 6000, Kinematica) at 14,000 rpm for 20 s. The homogenate was centrifuged at 48,000×g for 30 min at 4° C. Subsequently, the supernatant was removed and discarded, and the pellet resuspended in 20 ml HEPES-NaOH (20 mM, pH 7.4) containing 0.1 mM EDTA using the Polytron (20 s at 14,000 rpm). This procedure was repeated and the final pellet resuspended in HEPES-NaOH containing 0.1 mM EDTA and homogenized using the Polytron. Typically, aliquots of 2 ml membrane portions were stored at −80° C. With each new membrane batch the dissociation constant (Kd) was determined via a saturation curve. The TAAR1 radioligand ^3[H]-(S)-4-[(ethyl-phenyl-amino)-methyl]-4,5-dihydro-oxazol-2-ylamine (described in WO 2008/098857) was used at a concentration equal to the calculated Kd value, that was usually around 0.7 nM, resulting in the binding of approximately 0.5% of the radioligand and a specific binding representing approximately 70% of the total binding. Nonspecific binding was defined as the amount of ^3[H]-(S)-4-[(ethyl-phenyl-amino)-methyl]-4,5-dihydro-oxazol-2-ylamine bound in the presence of 10 μM unlabeled ligand. All compounds were tested at a broad range of concentrations ([…]) in duplicates. The test compounds (20 […]μl/well) were transferred into a 96 deep well plate (TreffLab), and 180 μl of HEPES-NaOH (20 mM, pH 7.4) containing MgCl2 (10 mM) and CaCl2 (2 mM) (binding buffer), 300 μl of the radioligand ^3[H]-(S)-4-[(ethyl-phenyl-amino)-methyl]-4,5-dihydro-oxazol-2-ylamine at a concentration of 3.3×Kd in nM and 500 μl of the membranes (resuspended at […]) added. The 96 deep well plates were incubated for 1 hr at 4° C. Incubations were terminated by rapid filtration through Unifilter-96 plates (Packard Instrument Company) and glass filters GF/C (Perkin Elmer) presoaked for 1 hr in polyethylenimine (0.3%) and washed 3 times with 1 ml of cold binding buffer. […]

mouse TAAR1, sequence (Q923Y8 whole entry): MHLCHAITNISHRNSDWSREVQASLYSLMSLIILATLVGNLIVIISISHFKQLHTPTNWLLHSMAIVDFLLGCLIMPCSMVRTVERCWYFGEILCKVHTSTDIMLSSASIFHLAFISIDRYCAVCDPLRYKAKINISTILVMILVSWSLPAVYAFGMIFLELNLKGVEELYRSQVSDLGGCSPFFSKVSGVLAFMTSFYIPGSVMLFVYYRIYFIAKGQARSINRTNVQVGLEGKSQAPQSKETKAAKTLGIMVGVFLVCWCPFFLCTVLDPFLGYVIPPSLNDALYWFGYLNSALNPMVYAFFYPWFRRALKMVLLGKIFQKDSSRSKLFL
rat TAAR1, sequence (Q923Y9 whole entry): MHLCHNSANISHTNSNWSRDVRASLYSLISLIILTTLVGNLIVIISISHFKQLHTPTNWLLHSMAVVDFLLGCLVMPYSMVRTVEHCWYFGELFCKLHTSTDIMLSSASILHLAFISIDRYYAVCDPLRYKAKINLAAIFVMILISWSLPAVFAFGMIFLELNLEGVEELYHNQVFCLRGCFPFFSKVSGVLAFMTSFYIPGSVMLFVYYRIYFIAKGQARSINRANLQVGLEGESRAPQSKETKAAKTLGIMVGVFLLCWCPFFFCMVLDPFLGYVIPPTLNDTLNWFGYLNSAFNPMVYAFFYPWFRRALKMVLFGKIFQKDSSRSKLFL

Regarding `CCCc1n[nH]c(C(=O)Nc2ccc(C[C@@]34CN[C@@H](CO3)C4)cc2)c1Cl` [Example 41, 4-Chloro-N-[4-[[(1R,4R)-5-oxa-2-azabicyclo[2.2.1]heptan-4-yl]methyl]phenyl]-3-propyl-1H-pyrazole-5-carboxamide], the Ki stood at 0.066 µM at rat TAAR1 and 0.0183 µM on mouse TAAR1.

For `O=C(Nc1ccc(C[C@@]23CN[C@@H](CO2)C3)cc1)c1cnc(C2CC2)nc1` [Example 51, 2-Cyclopropyl-N-[4-[[(1R,4R)-5-oxa-2-azabicyclo[2.2.1]heptan-4-yl]methyl]phenyl]pyrimidine-5-carboxamide], the results for the Ki at rat TAAR1 and at mouse TAAR1 were 0.324 µM and 0.0774 µM, respectively.

Turning to `O=C(Nc1ccc(C[C@]23CN[C@H](CO2)C3)cc1)c1ccnc(C(F)(F)F)c1` [Example 18, N-[4-[[(1S,4S)-5-Oxa-2-azabicyclo[2.2.1]heptan-4-yl]methyl]phenyl]-2-(trifluoromethyl)pyridine-4-carboxamide], the Ki on rat TAAR1 was determined as 0.354 µM; at mouse TAAR1, 0.238 µM.

Take `Clc1ccc(Nc2ccc([C@]34CN[C@H](CO3)C4)cc2)nc1` [Example 7, 5-Chloro-N-[4-[(1S,4R)-5-oxa-2-azabicyclo[2.2.1]heptan-4-yl]phenyl]pyridin-2-amine]: the results for the Ki on rat TAAR1 and at mouse TAAR1 were 0.309 µM and 0.0414 µM, respectively.

In the case of `Clc1ccc(Nc2ccc([C@@]34CN[C@@H](CO3)C4)cc2)nc1` [Example 20, 5-Chloro-N-[4-[(1R,4S)-5-oxa-2-azabicyclo[2.2.1]heptan-4-yl]phenyl]pyridin-2-amine], the Ki on rat TAAR1 turned out to be 1.78 µM; at mouse TAAR1 it was 0.0062 µM.

For `CCCc1n[nH]c(C(=O)Nc2ccc(C[C@]34CN[C@H](CO3)C4)cc2)c1Cl` [Example 16, 4-Chloro-N-[4-[[(1 S,4S)-5-oxa-2-azabicyclo[2.2.1]heptan-4-yl]methyl]phenyl]-3-propyl-1H-pyrazole-5-carboxamide], the Ki at rat TAAR1 worked out at 0.277 µM; at mouse TAAR1, 0.476 µM.

As to `O=C(Nc1ccc(C[C@]23CN[C@H](CO2)C3)cc1)Nc1cccc(Cl)c1` [Example 2, 1-(3-Chlorophenyl)-3-[4-[[(1S,4S)-5-oxa-2-azabicyclo[2.2.1]heptan-4-yl]methyl]phenyl]urea], the Ki at rat TAAR1 worked out at 0.0822 µM; on mouse TAAR1 it was 1.35 µM.

Consider `CCOc1ccc(C(=O)Nc2ccc(C[C@@]34CN[C@@H](CO3)C4)cc2)cc1` [Example 49, 4-Ethoxy-N-[4-[[(1R,4R)-5-oxa-2-azabicyclo[2.2.1]heptan-4-yl]methyl]phenyl]benzamide], for which the values for the Ki at rat TAAR1 and at mouse TAAR1 were 0.142 µM and 0.0067 µM, respectively.

For `FC(F)(F)c1cnc(Nc2ccc(C34CCC(CO3)NC4)cc2)nc1` (racemic) [Example 65, (RS)—N-[4-(5-Oxa-2-azabicyclo[2.2.2]octan-4-yl)phenyl]-5-(trifluoromethyl)pyrimidin-2-amine], the Ki on rat TAAR1 was determined as 3.84 µM; on mouse TAAR1 it was 0.122 µM.

As for `O=C(Nc1ccc(C23CCC(CO2)NC3)cc1)c1ccc(OCC2CC2)cc1` (racemic) [Example 11, (RS)-4-(Cyclopropylmethoxy)-N-[4-(5-oxa-2-azabicyclo[2.2.2]octan-4-yl)phenyl]benzamide], the Ki on rat TAAR1 worked out at 1.22 µM; at mouse TAAR1 it was 0.019 µM.

For the compound `O=C(Nc1ccc(Cl)cc1)Nc1ccc(C[C@]23CN[C@H](CO2)C3)cc1` [Example 1, 1-(4-Chlorophenyl)-3-[4-[[(1S,4S)-5-oxa-2-azabicyclo[2.2.1]heptan-4-yl]methyl]phenyl]urea], the Ki on rat TAAR1 was found to be 1150 µM; at mouse TAAR1, 1.82 µM.

Consider `CCOc1ccc(C(=O)Nc2ccc(C[C@]34CN[C@H](CO3)C4)cc2)cc1` [Example 19, 4-Ethoxy-N-[4-[[(1 S,4S)-5-oxa-2-azabicyclo[2.2.1]heptan-4-yl]methyl]phenyl]benzamide], for which the Ki at rat TAAR1 worked out at 0.063 µM; on mouse TAAR1, 0.334 µM.

`O=C(Nc1ccc(C[C@]23CN[C@H](CO2)C3)cc1)c1ccc(OCC2CC2)cc1` [Example 25, 4-(Cyclopropylmethoxy)-N-[4-[[(1S,4S)-5-oxa-2-azabicyclo[2.2.1]heptan-4-yl]methyl]phenyl]benzamide]: the Ki amounted to 0.0175 µM on rat TAAR1 and 0.168 µM at mouse TAAR1.

On to `O=C(Nc1ccc(C[C@@]23CN[C@@H](CO2)C3)cc1)Nc1cccc(C(F)(F)F)c1` [Example 44, 1-[4-[[(1R,4R)-5-Oxa-2-azabicyclo[2.2.1]heptan-4-yl]methyl]phenyl]-3-[3-(trifluoromethyl)phenyl]urea], for which the Ki on rat TAAR1 worked out at 0.0108 µM; on mouse TAAR1 it was 0.0046 µM.

Regarding `CCN(C[C@H]1COC(N)=N1)c1ccccc1` [^3[H]-(S)-4-[(ethyl-phenyl-amino)-methyl]-4,5-dihydro-oxazol-2-ylamine, reference compound], the Kd on rat TAAR1 (rat TAAR1 membranes, saturation curve, read-out: dissociation constant (Kd) of the TAAR1 radioligand) was around 0.0023 µM; on mouse TAAR1 (mouse TAAR1 membranes, saturation curve, read-out: dissociation constant (Kd) of the TAAR1 radioligand), around 0.0007 µM.

Regarding `O=C(Nc1ccc(C[C@@]23CN[C@@H](CO2)C3)cc1)c1ccnc(C(F)(F)F)c1` [Example 40, N-[4-[[(1R,4R)-5-Oxa-2-azabicyclo[2.2.1]heptan-4-yl]methyl]phenyl]-2-(trifluoromethyl)pyridine-4-carboxamide], the figures for the Ki on rat TAAR1 and at mouse TAAR1 were 0.0987 µM and 0.0522 µM, respectively.

For the compound `CCOc1ccc(C(=O)Nc2ccc(C34CCC(CO3)NC4)cc2)cc1` (stereo not shown) [Example 53, 4-Ethoxy-N-[4-(5-oxa-2-azabicyclo[2.2.2]octan-4-yl)phenyl]benzamide], the Ki stood at 1.98 µM on rat TAAR1 and 0.0156 µM on mouse TAAR1.
